Test system: ALAS1
Experiment: Western blot analysis of ALAS1 expression in SKCO1 cells
Type: cell-based, human
Details: 5 mM ALA for 16, 24 and 48 hours vs untreated
Experimental: (A) Heme content in SHSY5Y cells non-treated (NT) or treated with 5 mM ALA for 15 hours. Values are expressed as pmol heme/mg protein. Data represent mean±SEM, n=3; *=P<0.05. (B, C) qRT-PCR analysis of the expression of ALAS1 (B) and FLVCR1a (C) in SHSY5Y cells non-treated (NT) or treated with 5 mM ALA for 15 hours. Transcript abundance, normalized to beta-actin mRNA expression, is expressed as a fold increase over a calibrator sample. Data represent mean±SEM, n=4. For statistical analyses, an unpaired Student's t-test was used; *p<0.05. (D) qRT-PCR analysis of the expression of ALAS1 in SKCO1 cells untreated (NT) or treated with 5 mM ALA for 24 hours. Transcript abundance, normalized to beta-actin mRNA expression, is expressed as a fold increase over a calibrator sample. Data represent mean±SEM, n=5. […] Band intensities were measured by densitometry and normalized to beta-actin expression. […] (F) Proliferation of SHSY5Y cells assessed by crystal violet staining at different time points (starting from the day after plating, named “day 0”). Treatment with 5 mM ALA occurred at “day 0” and cells were monitored until the end of the experiment without medium refresh. […] (G) SKCO1 cells viability measured by the CellTiter-Fluor Cell Viability Assay (Promega, Madison, WI USA, catalog n°G6080) at different time points, starting from the day after plating (named “day 0”), as a readout of cell proliferation. […]

Which ALAS1 protein levels does the source give for `Cl.NCC(=O)CCC(=O)O` [5-ALA, 5-Aminolevulinic acid hydrochloride] here?
The ALAS1 protein levels was “decreased”.

From patent publication US20240285670A1, “THERAPEUTIC TREATMENT OF TUMORS BY BLOCKING THE HEME SYNTHESIS-EXPORT AXIS” (Università degli Studi di Torino, priority 2021, published 2024)
